Drawing on PubChem BioAssay (NCI), this text covers GI50 and TGI for 26 compounds.

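Grown in 96-well plates, cells were treated for 48 hours with each compound at five concentrations. Insufficient inhibition: endpoint recorded as highest concentration tested. GI50 = concentration required for 50% inhibition of growth. Definition used: TGI = concentration required for complete inhibition of growth.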

What all share (assay): NCI tumour cell line growth inhibition, 48 h
The test system of assay [1] is OVCAR-3 ovarian.
Assay [2] relates to MCF7 breast.
The subject of assay [3] is CAKI-1 renal.
Assay [4] concerns NCI-H23 lung.
The test system of assay [5] is SK-OV-3 ovarian.
Assay [6] has as its system CCRF-CEM leukemia.
For assay [7], the system named is HOP-62 NSCLC.
The subject of assay [8] is HOP-92 NSCLC.
Assay [9] concerns SR leukemia.
Assay [10] has as its system SK-MEL-2 melanoma.

Turning to `Cn1c2c(c3c(Cl)nncc31)Cc1ccccc1-2`, the GI50 in assay [1] is 31 µM; in assay [2], 9.03 µM; in assay [3], 16.9 µM; in assay [4], 18.7 µM; in assay [5], 28.6 µM; in assay [6], 15.3 µM. Besides, the GI50 in [7] is 25.2 µM; in assay [8] it was 9.47 µM. In addition, the TGI in assay [1] is > 100 µM; in assay [2], > 100 µM; in [3] it was 67.2 µM; in [4], 49 µM; in assay [5], 75.1 µM; in [6] it was > 100 µM. The TGI in [7] was > 100 µM; in assay [8], 43 µM.

In the case of `COC1(OC)C2(Cl)C(Cl)=C(Cl)C1(Cl)C1C2C2CC1(C(=O)O)c1ccccc12` (centres undefined), the TGI in [1] came out at 33.4 µM; in assay [9] it was 42.2 µM; in [3] it was 83.1 µM; in assay [4] it was 28.4 µM; in assay [5], 91.3 µM; in [6], 27 µM. Moreover, the TGI in assay [7] was found to be 62.8 µM; in assay [8] it was 93.4 µM.

As for `COC(=O)C1=CC2C=CC(C1C(=O)OC)C1C(C(=O)OC)=C(C(=O)OC)C(C(=O)OC)=C(C(=O)OC)C21OC` (centres undefined), the TGI in assay [1], in assay [9], in assay [3], in assay [4], in assay [5] and in [10] was > 100 µM in each case. The TGI in assay [7] and in assay [8] was > 100 µM throughout.

For the compound `Cc1cc(=O)n(-c2cc3cccccc-3n2)[nH]1`, the TGI in assay [1] is 8.23 µM; in assay [4], 47.4 µM; in [5], 47 µM; in [6], > 100 µM; in assay [7], > 100 µM.

On to `COC(=O)C1C(=O)O[C@@H](c2cc(OC)c(OC)cc2OC)C1C(=O)OC` (mixture of isomers), for which the TGI in assay [1], in [9], in assay [3], in assay [4], in [5] and in assay [6] was > 100 µM in each case. Besides, the TGI in assay [7] and in [8] was > 100 µM throughout.

Take `CC1=CC(C)(C)NN1C1=NS(=O)(=O)c2ccccc2N1C`: the TGI in assay [1], in assay [2], in assay [3], in [4], in assay [5] and in [10] was > 100 µM throughout. Besides, the TGI in assay [6], in [7] and in assay [8] was > 100 µM in each case.

Turning to `O=C(Nc1ccc(Cl)cc1Cl)OC(Cn1cncn1)c1ccc(Cl)cc1Cl` (centres undefined), the TGI in [1] is 29.3 µM; in [9], > 100 µM; in assay [4], 28.4 µM; in assay [5], 34.7 µM; in assay [10], 33.7 µM; in assay [6], > 100 µM. This compound showed a TGI in [7] of 34.5 µM.

Regarding `CNS(=O)(=O)NNS(=O)(=O)c1ccc(OC)cc1`, the TGI in [1], in [9], in assay [3], in assay [4], in assay [5] and in [10] was > 100 µM each time. Also, the TGI in [6] and in assay [7] was > 100 µM each time.

Consider `C/C=C1\CN2CCc3c([nH]c4ccccc34)C2CC1CCO` (centres undefined), for which the TGI in [1], in [9], in [4], in [5], in assay [10] and in assay [6] was > 100 µM throughout. The TGI in [7] and in assay [8] was > 100 µM in each case.

`Clc1cccc(C2N3CCCCC3[C@@H]3c4[nH]c5ccccc5c4CCN23)c1` (some centres undefined): the TGI is > 100 µM in assay [1]; > 100 µM in assay [3]; 45 µM in [4]; > 100 µM in assay [5]; 40.1 µM in [10]; 56.6 µM in assay [6]. Besides, the TGI in [7] and in assay [8] was > 100 µM throughout.

Consider `CC(=O)[C@H]1CCC2[C@@H]3CC=C4C[C@@H]([O-])CC[C@]4(C)C3CC[C@@]21C.CC(=O)[C@H]1CCC2[C@@H]3CC=C4C[C@@H]([O-])CC[C@]4(C)C3CC[C@@]21C.CC(=O)[CH-]C(=O)c1ccccc1.CC(=O)[CH-]C(=O)c1ccccc1.Cl.[Ti+4]` (some centres undefined), for which the GI50 in assay [1] was 39.5 µM; in assay [3], 19 µM; in assay [4] it was 13.4 µM; in assay [5], 26.6 µM; in assay [10], 14.7 µM; in assay [6], 10.6 µM. In addition, in assay [7], the GI50 is 24.6 µM. Further, the TGI was > 100 µM in assay [1]; 97.3 µM in [3]; 29.5 µM in [4]; 77.4 µM in [5]; 31 µM in [10]; > 100 µM in assay [6]. Also, in [7], the TGI amounted to 67.6 µM.

For the compound `O=C1O/C(=C/c2ccccc2)C(c2ccccc2)=C1O`, the TGI is 44.1 µM in assay [1]; > 100 µM in assay [2]; > 100 µM in [3]; 44.7 µM in assay [4]; > 100 µM in assay [5]; 31.6 µM in assay [10]. For the same compound, the TGI in assay [6] was > 100 µM; in assay [7], 94.3 µM; in assay [8], > 100 µM.

Take `Nc1c(Cl)ncnc1NCCCCCCCCCCCCNc1ncnc(Cl)c1N`: the TGI in assay [1] was 8.35 µM; in [9], 5.16 µM; in assay [4], 2.41 µM; in assay [5] it was > 100 µM; in [10], 7.92 µM; in assay [7], 6.82 µM. The compound further gave a TGI in [8] of 4.3 µM.

For the compound `Cc1cc(C)c(-c2noc(-c3ccc(Cl)cc3)c2C2=NCCCN2)c(C)c1`, the TGI is > 100 µM in assay [1]; > 100 µM in assay [9]; > 100 µM in assay [3]; 40.1 µM in [4]; > 100 µM in assay [5]; 49.9 µM in [10]. Besides, the TGI turned out to be 73.9 µM in assay [6] and 85.8 µM in assay [7].

For `COc1ccc(S(=O)(=O)N(CC(=O)O)c2ccccc2)cc1`, the TGI in [1], in [3], in assay [4], in assay [5], in [10] and in [6] was > 100 µM throughout. Further, the TGI in assay [8] was > 100 µM.

Consider `Cc1cc(C)c(-c2c(N)cc(Br)cc2Br)c(N)c1`, for which the GI50 in [1] was 3.09 µM; in assay [2], 4.03 µM; in assay [3] it was 3.83 µM; in [4], 4.89 µM; in assay [5], 3.53 µM; in assay [10], 3.95 µM. Further, the GI50 in assay [8] was 2.77 µM. Also, the TGI in assay [1] came to 8.74 µM; in [2], 13.8 µM; in assay [3], 19.1 µM; in assay [4], 18 µM; in assay [5] it was 14.3 µM; in assay [10] it was 14.1 µM. Further, the TGI in [8] stood at 9.4 µM.

Turning to `C=CCC(N[C@H](CO)c1ccccc1)c1cn(Cc2ccccc2Cl)c(=O)n(Cc2ccccc2Cl)c1=O` (some centres undefined), the GI50 in [1] was 8.8 µM; in [2], 16.4 µM; in [3], 4.46 µM; in assay [4], 19.5 µM; in [5], 63.8 µM; in assay [10], 18.9 µM. For the same compound, the GI50 in assay [6] is 10.6 µM; in assay [7], 12 µM; in [8], 3.92 µM. For the same compound, the TGI was 43.8 µM in assay [1]; 68.7 µM in assay [2]; 32.2 µM in assay [3]; 62.1 µM in [4]; > 100 µM in assay [5]; 57.5 µM in assay [10]. The TGI in assay [6] was 42.5 µM; in assay [7], 29.9 µM; in assay [8] it was 23.1 µM.

Regarding `Cc1cccc(C)c1N1C(=O)C(=O)C(c2nc3ccccc3s2)/C(=N\N)C1=O` (centres undefined), the TGI in [1], in [3], in [4], in assay [5], in [10] and in assay [7] was > 100 µM throughout. For the same compound, the TGI in [8] was > 100 µM.

As for `CCCCCCCC/C=C/CCCCCCCC1=NC(C)(C)CN1CCO`, the GI50 was 4.52 µM in assay [1]; 1.7 µM in [2]; 1.56 µM in assay [3]; 1.84 µM in assay [4]; 9.97 µM in [5]; 1.86 µM in [10]. Further, the GI50 in [6] was 2.22 µM; in assay [7] it was 1.83 µM; in [8], 1.43 µM. Further, the TGI in [1] came to 9 µM; in assay [2], 3.19 µM; in assay [3], 3.03 µM; in assay [4], 3.7 µM; in assay [5], 24.2 µM; in [10], 3.49 µM. Further, the values for the TGI in assay [6], in assay [7] and in [8] were 6.75 µM, 3.29 µM and 7.45 µM, respectively.

As for `CN(/N=C/c1ccnc2ccccc12)c1c([N+](=O)[O-])cc([N+](=O)[O-])cc1[N+](=O)[O-]`, the TGI in assay [1] is > 100 µM; in assay [3], > 100 µM; in assay [4], > 100 µM; in assay [5] it was > 100 µM; in assay [10], 89.1 µM; in [6], > 100 µM. The TGI in assay [7] and in assay [8] was > 100 µM each time.

Turning to `N/N=C(/Cc1nc2ccc(C(=O)c3ccccc3)cc2[nH]c1=O)C(=O)Nc1ccc([N+](=O)[O-])cc1[N+](=O)[O-]`, the GI50 in assay [9], in [4], in assay [10] and in assay [6] was > 100 µM each time. Besides, the TGI in assay [9], in assay [3], in assay [4], in assay [5], in assay [10] and in [6] was > 100 µM in each case.

As for `O=C1c2ccccc2-c2c1c1ccccc1c(=O)n2CCCNCCn1c2c(c3ccccc3c1=O)C(=O)c1ccccc1-2`, the GI50 in assay [1] was 8.82 µM; in assay [2] it was 3.47 µM; in assay [3], 14.3 µM; in [4], 2.25 µM; in assay [5], 19.2 µM; in assay [10] it was 28.2 µM. The GI50 in assay [7] was 9.69 µM; in [8] it was 14.1 µM. In addition, the TGI in assay [1] is 21.1 µM; in [2] it was 13.8 µM; in assay [3], 28.7 µM; in assay [4], 11.6 µM; in assay [5], > 100 µM; in assay [10], 96.9 µM. Further, the TGI in assay [7] turned out to be 25.3 µM; in assay [8] it was 28.1 µM.

For `O=C(/C=C/c1cccc([N+](=O)[O-])c1)c1ccc([N+](=O)[O-])cc1`, the TGI in assay [1], in assay [9], in assay [3], in assay [4], in [5] and in assay [10] was > 100 µM each time. Besides, the TGI in assay [6] and in assay [7] was > 100 µM each time.

`O=C(/C=C\c1cccc2ccccc12)c1ccc(Cl)cc1Cl`: the TGI in assay [1] was 43.5 µM; in [3], > 100 µM; in [4], > 100 µM; in [5] it was > 100 µM; in assay [6] it was 42.1 µM; in assay [7] it was > 100 µM.

Regarding `CC(=O)N1N=C(c2ccc(Nc3nc(Nc4ccc(F)cc4)nc(Nc4ccc(F)cc4)n3)cc2)CC1c1ccc(N(C)C)cc1` (centres undefined), the GI50 in assay [1] was 5.23 µM; in [2], 3.23 µM; in assay [3] it was 15.6 µM; in assay [4] it was 4.1 µM; in assay [5] it was 15.5 µM; in [10], 3.61 µM. The values for the GI50 in assay [6] and in assay [7] were 3.36 µM and 5.98 µM, respectively. Further, the TGI in assay [1] was found to be 20.3 µM; in assay [2] it was 13.7 µM; in [3], 93.1 µM; in [4] it was 26.7 µM; in assay [5], 53.7 µM; in [10] it was 16.5 µM. Further, the values for the TGI in assay [6], in assay [7] and in assay [8] were 49.9 µM, 26 µM and 0.488 µM, respectively.

Take `O=C(Nc1ccc(Cl)c(Cl)c1)C(=O)C(C(=O)c1ccccc1-c1ccccc1)C1OC(=O)c2ccccc21` (centres undefined): the TGI is 31.9 µM in assay [1]; 24.6 µM in assay [4]; 78.3 µM in assay [5]; 24.7 µM in assay [10]; 84.9 µM in assay [6]; 27.4 µM in assay [7]. This compound showed a TGI in [8] of 30.2 µM.
